# Reference: patent US10251842B1, “Nanocapsule containing a bioactive compound, and a method of reducing toxicity resulting from cancer therapy” (King Abdulaziz University, priority 2017, dated 2019)
# Marks after values point to notes of the source that are not given here.
# Assays:
# SUIT2 pancreatic tumor = test: CAM pancreatic cancer cell implant model (tumor growth, tumor angiogenesis, IVIS bioluminescence); assay type: in vivo, chick embryo; conditions: for suppression of vascular pattern / tumor angiogenesis of pancreatic tumor: 1 μg/CAM, 3 days of incubation, nanocapsules versus unencapsulated; for viable pancreatic cancer cells, bioluminescence (IVIS): SUIT2-luc tumors, ex vivo imaging
# Method: To determine the relative potency of different nanocapsules and unencapsulated bioactive compounds, they were tested in the CAM pancreatic cancer cell implant model of tumor growth and tumor angiogenesis by modifying published protocols (Marcinkiewicz C. Weinreb P H, Calvete J J, Kisiel D G, Mousa S A, Tuszynski G P, Lobb R R. A Potent Selective Inhibitor of alpha1beta1 Integrin in Vitro and Angiogenesis in Vivo. Cancer Res. 2003; 63(9): 2020-2023; and Deryugina E I and Quigley J P: Chick Embryo Chorioallantoic Membrane Models to Quantify Angiogenesis induced by inflammatory and tumor cells or purified effector molecules. Methods in Enzymol. 2008; 444: 21-41, each incorporated herein by reference in their entirety).
# A 7-day old chick embryo were purchased from Spafas, Inc. (Preston, Conn.) and incubated at 37° C. with 55% relative humidity. A hypodermic needle was used to make a small hole in the shell at the air sac and a second hole will be made on the broadside of the egg, directly over an avascular portion of the embryonic membrane that was identified by candling. A false air sac was created beneath the second hole by the application of negative pressure at the first hole, causing the CAM to separate from the shell. […] Treatment effects (Tumor growth, and tumor angiogenesis were determined 7 days after tumor cell implantation. For these studies, Matrigel® (BD Bioscience, San Jose Calif.) were thawed overnight at 4° C. and placed on ice. Cells in exponential growth phase were harvested using 0.25% trypsin-EDTA washed and suspended in medium. Only suspensions of single cells with a viability exceeding 95% were used. Approximately 1×10^6 cells in 30 μL of medium mixed with same volume (30 μL) of Matrigel was implanted on the chorioallantoic membrane.
# After incubation at 37° C. with 55% relative humidity for 3 days, the CAM tissue directly beneath each filter disk was resected from control and treated CAM samples. […] Digital images of CAM sections exposed to filters were collected, using a 3-CCD color video c vera system (Toshiba America, New York, N.Y.), and analyzed with Image-Pro software (Media Cybernetics, Silver Spring, Md.). The numbers of vessel branch points contained in a circular region equal to the area of each filter disk were counted. One image was counted in each CAM preparation, and findings from 6-8 CAM preparations group were analyzed for each treatment condition.
# Results presented as mean tumor weight (mg) per treatment group and tumor hemoglobin (mg/dl)±SD, n=8 eggs per group. The effect of these treatments was determined after 7 days of implantation. […]
# [1] = system: SUIT2 pancreatic cancer cells; test: MTT cell viability/proliferation assay, SUIT2; assay type: cell-based, human; conditions: SUIT2, 24 hours, 1 μg/ml
# Method: SUIT2-luc cells were grown in DMEM supplemented with 5% fetal bovine serum, 1% penicillin, and 1% streptomycin. Cells were cultured at 37° C. to sub-confluence and treated with 0.25% w/v typsin/EDTA to affect cell release from culture flask. After washing cells with culture medium, cells were suspended in DMEM (free of phenol red and fetal bovine serum) and counted.
# SUIT2 cells were subjected to treatment with unencapsulated DIM, unencapsulated EA, combinations thereof, and the nanocapsules containing DIM and/or EA at concentrations of the bioactive compounds ranging from 0.1 to 10 μg. Briefly, cells were seeded at a density of 10^4 cells/well in 96-well plates, and then incubated with compounds and nanocapsules for 24 hours. Cell viability/proliferation was determined by MTT assay, as per the manufacturer's protocol. MTT solution was added to each well, and cells were further incubated for 4 hours at 37° C. The formed dye was solubilized by the addition of 50 μL of DMSO and incubated for 10 min at 37° C. The optical density of each well was determined using an ELISA plate reader at an activation wavelength of 570 nm and reference wavelength of 650 nm. The percentage of viable cells was determined by comparison to untreated control cells.
# cisplatin-induced NF-κB = test: NF-κB luciferase assay in HeLa cells stimulated with cisplatin; assay type: cell-based; conditions: Homo sapiens, 3 μM (3 μM total for combinations), n = 3, read-out: Mean % inhibition of cisplatin-induced NFkB ± SD
# Method: The induction of NF-κB by cisplatin and other chemotherapies is known to be associated with neuropathy and nephrotoxicity. In this example, the effect of unencapsulated DIM and EA, and the nanocapsules cisplatin-induced NF-κB was studied using HeLa cells which expressed NF-κB.
# HeLa cells were seeded at 1×10^5 cells in 2 ml/well in 6-well plates at 37° C. for 24 hours. The doses of the test compounds were based on preliminary studies. Test compounds (nanocapsules containing DIM, nanocapsules containing E&, nanocapsules containing DIM and EA, unencapsulated DIM, and unencapsulated EA) were added at concentrations ranging from 1-3 μM to the plate with fresh medium including 0.5% FBS and incubated at 37° C. in 5% CO2 for an additional 3 hours. For induction of transcription and to test the biological response of the promoters, the cell line stimulated with cisplatin (Sigma) and the cells were incubated at 37° C. in 5% CO2 for 24 hours. The luciferase activity determined by using the luciferase assay system (Promega, Madison, Wis., US). […] Luminescence was immediately measured using Glomax 20/20 Illuminometer (Promega). Luciferase expression of each test compound was quantified as the relative light units (RLU), normalized to readings of control wells, and expressed as relative NF-κB reporter activity. The mean % inhibitory effects of the compounds were calculated.
# [2] = system: breast cancer MCF-7 tumor; test: Subcutaneous xenograft in nude mice, breast cancer MCF-7; assay type: in vivo; conditions: SC, mean ± SEM, n = 4-5 animals/group
# Method: Immunodeficient, female NCr nude mice aged 5-6 weeks and weighing between […] were maintained under specific pathogen-free conditions and housed under controlled conditions of temperature (20-24° C.) and humidity (60-70%) and 12 h light/dark cycle with ad libitum access to water and food. Mice were allowed to acclimatize for 5 days prior to the start of study.
# Xenografts containing 1×10^6 to 2×10^6 tumor cells (e.g., pancreatic SUIT2, colon HT-29, glioblastoma U87, or breast cancer MCF-7 cells) were implanted subcutaneously in a mouse flank. There were 2 grafts mouse and there were 4 mice in each group (control, treatments using vehicle). DMSO or ethyl acetate used during the preparation of nanocapsules was totally removed by dialysis and the vehicle used to disperse the DIM or EA and their nanocapsule forms was phosphate buffered saline (PBS).
# Tumors were excised at the end of the study from all treatment arms, which included control; DIM; EA; nanocapsule containing DIM; nanocapsule containing EA; nanocapsule containing DIM acid EA; nanocapsule containing cisplatin; nanocapsule containing doxorubicin; nanocapsule containing cisplatin, DIM, and EA; and nanocapsule containing doxorubicin, DIM, and EA. Tumor growth was measured.
# [3] = Plasma cardiac troponin in MCF-7 tumor bearing mice; assay type: in vivo
SMILES,suppression of vascular pattern / tumor angiogenesis of pancreatic tumor (SUIT2 pancreatic tumor),"viable pancreatic cancer cells, bioluminescence (IVIS) (SUIT2 pancreatic tumor)",effect on cell viability/proliferation [1],inhibition at 3 µM (cisplatin-induced NF-κB) [%],Mean Breast (MCF-7) Tumor Growth [2] [g],plasma cardiac troponin ([3]; MCF-7 tumor bearing mice),"Troponin (% from control) ([3]; mice, SC)"
"c1ccc2c(Cc3c[nH]c4ccccc34)c[nH]c2c1 [DIM, 3,3′-diindolylmethane]",mild suppression,statistically significant reduction,did not show any significant effect,20 ± 5,,,
"COc1cccc2c1C(=O)c1c(O)c3c(c(O)c1C2=O)C[C@@](O)(C(=O)CO)C[C@@H]3O[C@H]1C[C@H](N)[C@H](O)[C@H](C)O1 [DOX, doxorubicin]",,,,,0.70 ± 0.15,large increase,+50-70%**
"O=c1oc2c(O)c(O)cc3c(=O)oc4c(O)c(O)cc1c4c23 [Ellagic acid, ellagic acid]",mild suppression,statistically significant reduction,did not show any significant effect,26 ± 4,,,
